Experimental data: paper PMC8760490, “Discovery of novel furanylbenzamide inhibitors that target oncogenic tyrosine phosphatase SHP2 in leukemia cells” (The Journal of Biological Chemistry, 2021)

Experiments:
BT-549 TNBC cells [1] = assay: TNBC cell viability (CellTiter-Glo), BT-549; type: cell-based; settings: various concentrations
Method: (§1) Inhibition of SHP2 has been reported to inhibit the growth of cancer cells including Kasumi-1 acute myeloid leukemia (AML) and KYSE-520 esophageal cancer cells ([30]). […] Thus, we treated two TNBC cell lines, BT-549 and MDA-MB-468, with SBI-4668 or the SHP2 allosteric inhibitor SHP099 at various concentrations and determined cell viability after 72 h, compared with the vehicle control (Fig. 4C). […] Next, we performed an 11-day colony formation assay with TNBC cells treated with SBI-4668 or SHP099 at 5, 10, or 20 μM (Fig. 4D).
(§2) Triple-negative breast cancer cell viability was assessed using the ATP-depletion assay CellTiter-Glo. Briefly, 2500 cells in 25 μl media (RPMI + 10% FBS + 1× penicillin–streptomycin [Omega Scientific]) were seeded per well of a 384-well tissue culture–treated plate (Greiner). About 25 nl of 1000× test compound were added using a Labcyte Echo acoustic dispenser, and the cells were incubated for 5 days before addition of 10 μl of CellTiter-Glo reagent as described by the manufacturer. Luminescence was detected on a BioTek Synergy 2 microplate reader, and the values normalized to those of vehicle (DMSO)-treated controls before being plotted using GraphPad Prism.

MDA-MB-468 TNBC cells [2] = assay: TNBC cell viability (CellTiter-Glo), MDA-MB-468; type: cell-based; settings: various concentrations
Method: as §1, §2

BT-549 TNBC cells [3] = assay: 11-day colony formation assay, BT-549; type: cell-based; settings: 5, 10 or 20 μM, 11 days
Method: as §1
(§3) MDA-MB-468 and […] triple-negative breast cancer cells were maintained in Dulbecco's modified Eagle's medium + 10% FBS supplemented with 1× penicillin–streptomycin/L-glutamine (Omega Scientific). About 1500 cells (in 300 μl) were seeded per well of a standard 24-well tissue culture plate (Falcon) and allowed to adhere for 24 h, before the addition of compound(s) as described. After a further 96 h, media were replaced with fresh media containing the same test compounds and concentrations. After 11 days, media were removed, and cells stained with 0.5% crystal violet (in 20% methanol; Sigma) for 20 min with agitation at 80 rpm. Stain was removed, and plates with stained cells were washed by being submerged in excess deionized water and allowed to air dry overnight before imaging.

MOLM-13 AML cells = assay: Cell viability (CellTiter-Glo), MOLM-13; type: cell-based; settings: 72 h, 30 μM to 58 nM, regular MOLM-13 expressing WT SHP2 (Fig. 4G); read-out: MOLM-13 cell viability IC50 (parallel to SHP2 KO)
Method: as §1
Finally, we evaluated the selectivity of our top two compounds, SBI-2130 and SBI-4668, on MOLM-13 AML cells in which SHP2 was depleted using CRISPR–Cas9 KO. High-efficiency Cas9-editing MOLM-13 cells were generated by transducing MOLM-13 cells with a Cas9 lentiviral construct. Stable clones were tested for editing efficiency by performing tracking of indels by decomposition analysis ([45]), and these MOLM-13-Cas9 cells were transduced with a lentiviral construct containing an AAVS1 single-guide RNA (sgRNA) and an mCherry reporter for bulk sorting of cells with successful AAVS1 editing. SHP2 KO was achieved by transducing MOLM-13-Cas9-mCherry cells with a lentivirus, containing SHP2 dual sgRNAs, resulting in ∼80% reduction of SHP2 protein levels (Fig. 4G). SBI-2130, SBI-4668, and the SHP2 allosteric inhibitor, SHP099, were tested in parallel on regular MOLM-13 cells (expressing WT SHP2) and MOLM-13-Cas9-mCherry cells with SHP2 KO. Cells were treated with inhibitors at various concentrations (ranging from 30 μM to 58 nM) or vehicle control (DMSO) for 72 h, before cell viability was assessed.
Viability of AML and esophageal carcinoma cells was assessed using the ATP-depletion assay CellTiter-Glo (Promega). Cells were harvested at 1 × 10^6/ml to 2 × 10^6 cells/ml with cell numbers determined by trypan blue using the Countess Cell counter (Thermo Scientific) and resuspended in culture media. About 3000 cells (in 20 μl) were seeded in a 384-well format white and clear-bottom microplate (catalog no.: 781098; Greiner) spotted with test compound or vehicle control (DMSO) using an Echo 555 Liquid Handler. […] Luminescence was read on a Tecan Spark Multimode Microplate Reader, and data were analyzed using GraphPad Prism software.
For SHP2 KO, dual sgRNAs targeting SHP2 were cloned in the pLentiGuide puro vector (Addgene plasmid no. 52963 from Dr Feng Zhang) using a published protocol ([50]). […] SHP2 KO was evaluated by immunoblotting. […] For SHP2 KO, MOLM-13-Cas9-mCherry cells were seeded in nontreated 6-well plates (2 × 10^6 cells/well in 2.5 ml), with cell numbers determined by trypan blue using the Countess Cell Counter (Thermo Scientific). […]

MDA-MB-468 TNBC cells [4] = assay: 11-day colony formation assay, MDA-MB-468; type: cell-based; settings: 5, 10 or 20 μM, 11 days
Method: as §1, §3

[5] = system: KYSE-520 esophageal cancer cells; assay: Cell viability (CellTiter-Glo), KYSE-520; type: cell-based; settings: various concentrations, 3 days
Method: as §1
(§4) Viability of AML and esophageal carcinoma cells was assessed using the ATP-depletion assay CellTiter-Glo (Promega). Cells were harvested at 1 × 10^6/ml to 2 × 10^6 cells/ml with cell numbers determined by trypan blue using the Countess Cell counter (Thermo Scientific) and resuspended in culture media. About 3000 cells (in 20 μl) were seeded in a 384-well format white and clear-bottom microplate (catalog no.: 781098; Greiner) spotted with test compound or vehicle control (DMSO) using an Echo 555 Liquid Handler. Cells were incubated for 3 days, before 10 μl of CellTiter-Glo reagent mix was added to each well and incubated for 10 min at RT. Luminescence was read on a Tecan Spark Multimode Microplate Reader, and data were analyzed using GraphPad Prism software.

[6] = system: Kasumi-1 acute myeloid leukemia (AML) cells; assay: Cell viability (CellTiter-Glo), Kasumi-1; type: cell-based; settings: various concentrations, 3 days
Method: as §1, §4

[7] = target: T1, full-length SHP2 WT (SHP2-WT) (Homo sapiens, UniProt Q06124); assay: DiFMUP fluorescence phosphatase inhibition assay, SHP2-WT activated with IRS-1 peptide; type: biochemical; settings: DiFMUP at Km (60 μM), pH 6.0
T1 construct: Recombinant human full-length SHP2 (1–594) WT and E76K mutants; made in house
From the text: To test the synthesized compounds for their potential to inhibit SHP2 activity, a fluorescence intensity-based assay using 6,8-difluoro-4-methylumbelliferyl phosphate (DiFMUP) as the substrate was adapted for three recombinant SHP2 constructs: (1) the SHP2 catalytic domain (SHP2cat; residues 248–527), (2) the full-length SHP2-E76K oncogenic mutant, and (3) the full-length SHP2 WT (SHP2-WT). The recombinant SHP2 proteins were expressed and purified as described previously ([36]). A dually phosphorylated peptide derived from the insulin receptor substrate 1 (IRS-1) served as a surrogate binding protein and was used to activate SHP2-WT ([30], [36]). […] Michaelis–Menten experiments to determine the DiFMUP Michaelis–Menten constant (Km) for each SHP2 construct were performed as described previously ([36]) and yielded the following values: SHP2-WT, Km = 60 μM; SHP2-E76K, Km = 20 μM; and SHP2cat, Km = 20 μM. Relative maximum rates (Vmax) of the DiFMUP reactions expressed as relative fluorescence units per minute (RFU/min) were as follows: SHP2-WT, Vmax = 871 RFU/min; SHP2-E76K, Vmax = 2730 RFU/min; and SHP2cat, Vmax = 2912 RFU/min. IC50 values for each compound were determined from initial rates in 10-point dose–response assays using DiFMUP at a concentration corresponding to its Km value for the respective SHP2 construct. […] Replacements for the benzothiophenone were explored using analog #10.
Recombinant human full-length SHP2 (1–594) WT and E76K mutants, as well as the SHP2cat (248–527), were expressed and purified as described before ([36], [41]). Recombinant human PTP1B (1–300) and the codon-optimized STEP (280–566) catalytic domains were cloned into PET-15b and expressed as N-His-tagged fusion proteins. For expression, transformed BL21(DE3) cells were grown and induced similar as described for SHP2. Collected cells were resuspended in lysis buffer (25 mM Tris, pH 7.5, 300 mM NaCl, 50 mM imidazole, and 10% glycerol) with 100 mg/l RNaseA and were lysed with two passages using a microfluidizer. The lysate was clarified by centrifugation at 15,000g for 50 min and applied to nickel–nitrilotriacetic acid resin. The column resin was washed, and the PTP1B or STEP protein was eluted in lysis buffer at 300 mM imidazole. The PTP1B or STEP protein was further purified by S75 size-exclusion chromatography in 50 mM Tris, pH 7.5, 50 mM NaCl. The eluted peak fractions were supplemented with tris(2-carboxyethyl)phosphine to 10 mM, concentrated by ultrafiltration, and stored at −80 °C. The purified yield of PTP1B was 33 mg/l cell culture; the yield of STEP was 16 mg/l cell culture.
SHP2 inhibitors were tested at RT in a 384-well plate format standard phosphatase fluorescence intensity assay using DiFMUP (Invitrogen/Thermo Fisher Scientific) as a substrate and a total reaction volume of 25 μl. SHP2 inhibitors or vehicle (DMSO) were spotted in triplicate into a black Greiner FLUOTRAC 200 384-well microplate (catalog no.: 781076; Greiner) for a 10-point dose–response assay using an Echo 555 Liquid Handler (Labcyte, Inc). PTP working solutions were prepared at a 0.625 nM concentration (for a final concentration of 0.5 nM) in buffer containing 50 mM Bis–Tris, pH 6.0, 50 mM NaCl, 5 mM DTT, and 0.01% Tween-20. Prior to the assay, a dually phosphorylated IRS-1 peptide (625 nM [500 nM final] ([30])) was added to full-length WT SHP2 working solutions and incubated for 20 min. DiFMUP working solutions at 5× final concentration were prepared in 50 mM Bis–Tris, pH 6.0, 50 mM NaCl, and 0.01% Tween-20. About 20 μl of PTP working solution was dispensed into the microplate and incubated with inhibitor for 20 min at RT. […] The reaction was initiated by addition of 5 μl DiFMUP working solutions. Fluorescence intensity was measured in kinetic mode (every minute for 7 or 10 min) using a Tecan Spark Multimode Microplate Reader (Tecan) with an excitation wavelength of 360 nm and an emission wavelength of 460 nm. […]

SMILES	effect on BT-549 cell viability (BT-549 TNBC cells [1])	effect on MDA-MB-468 cell viability (MDA-MB-468 TNBC cells [2])	colony formation, BT-549 (BT-549 TNBC cells [3])	IC50 (MOLM-13 AML cells)	colony formation, MDA-MB-468 (MDA-MB-468 TNBC cells [4])	effect on KYSE-520 cell growth [5]	effect on Kasumi-1 cell growth [6]	IC50 [7]
CC1(N)CCN(c2cnc(-c3cccc(Cl)c3Cl)c(N)n2)CC1 [SHP099, reference compound]	very minor effect	very minor effect	very weak effect	9.4 µM	very weak effect			
CC(C)NC(=O)c1cccc(-c2ccc(/C=C3\Sc4ccccc4C3=O)o2)c1 [SBI-9639, (Z)-N-isopropyl-3-(5-((3-oxobenzo[b]thiophen-2(3H)-ylidene)methyl)furan-2-yl)benzamide]						no notable effects	no notable effects	> 100 µM
